Reference: the CheMixHub viscosity set
Where “and” joins values, the source holds several entries; their conditions need not be identical. Equal values may be shown once.

Assay: xn = mol fraction of the nth substance listed

Cc1cccc(O)c1 + C1CCCCC1
308.15 K, 101 kPa
Settings | viscosity [mPa·s]
x1 = 0.0832 | 0.8736
x1 = 0.289 | 1.288
x1 = 0.3627 | 1.541
x1 = 0.4467 | 1.863
x1 = 0.5201 | 2.175
x1 = 0.5859 | 2.547
x1 = 0.7213 | 3.745
x1 = 0.8473 | 5.244
x1 = 0.9032 | 6.428

CCCC[N+](CCCC)(CCCC)CCCC.O=[N+]([O-])[O-] + O
viscosity [mPa·s], 101 kPa
Settings | 298.15 K | 308.15 K | 318.15 K | 323.15 K
x1 = 0.000175 | 0.9058 | 0.7311 | 0.6051 | 0.5548
x1 = 0.0007208 | 0.9399 | 0.7555 | 0.6231 | 0.5704
x1 = 0.0009037 | 0.9512 | 0.7635 | 0.629 | 0.5756
x1 = 0.001282 | 0.9739 | 0.7798 | 0.6411 | 0.586
x1 = 0.001513 | 0.9877 | 0.7898 | 0.6484 | 0.5923
x1 = 0.002132 | 1.024 | 0.8156 | 0.6675 | 0.609
x1 = 0.00641 | 1.328 | 1.024 | 0.8259 | 0.747
x1 = 0.006556 | 1.335 | 1.035 | 0.8318 | 0.7536
x1 = 0.009813 | 1.592 | 1.21 | 0.9594 | 0.8647
x1 = 0.0134 | 1.907 | 1.431 | 1.107 | 1.002
x1 = 0.0182 | 2.346 | 1.735 | 1.333 | 1.182
x1 = 0.01938 | 2.474 | 1.813 | 1.399 | 1.241
x1 = 0.02698 | 3.292 | 2.346 | 1.808 | 1.573
x1 = 0.03856 | 4.744 | 3.175 | 2.424 | 2.123
x1 = 0.06582 | 8.699 | 5.748 | 4.183 | 3.578
x1 = 0.08624 | 12.21 | 7.98 | 5.611 | 4.732
x1 = 0.1165 | 18.05 | 11.05 | 7.815 | 6.642

Cc1cccc(O)c1 + C[N+](C)(C)CCO.[Cl-]
298.15 K, 101.33 kPa
Settings | viscosity
x1 = 0.7 | 138.1 mPa·s
x1 = 0.8 | 74.18 mPa·s and 56.16 mPa·s and 49.24 mPa·s
x1 = 0.9 | 39.12 mPa·s

C[N+](=O)[O-] + CC(C)(C)O
viscosity [mPa·s], 101.33 kPa
Settings | 298.15 K | 303.15 K | 313.15 K
x2 = 0.05 | 0.609 | 0.569 | 0.511
x2 = 0.1002 | 0.611 | 0.567 | 0.506
x2 = 0.1502 | 0.642 | 0.573 | 0.508
x2 = 0.2 | 0.644 | 0.587 | 0.517
x2 = 0.2499 | 0.674 | 0.609 | 0.531
x2 = 0.3 | 0.749 | 0.638 | 0.549
x2 = 0.3503 | 0.793 | 0.672 | 0.573
x2 = 0.4 | 0.87 | 0.714 | 0.601
x2 = 0.4501 | 0.894 | 0.761 | 0.633
x2 = 0.5001 | 0.972 | 0.819 | 0.671
x2 = 0.55 | 1.072 | 0.886 | 0.717
x2 = 0.6001 | 1.154 | 0.962 | 0.811
x2 = 0.6499 | 1.219 | 1.057 | 0.829
x2 = 0.7 | 1.361 | 1.174 | 0.885
x2 = 0.75 | 1.557 | 1.32 | 0.966
x2 = 0.8 | 1.776 | 1.491 | 1.106
x2 = 0.85 | 2.079 | 1.72 | 1.244
x2 = 0.8999 | 2.51 | 2.05 | 1.442
x2 = 0.95 | 3.194 | 2.527 | 1.697

N + O
Settings | viscosity [mPa·s]
293.15 K, 100 kPa, x1 = 0.1035 | 1.166
293.15 K, 101 kPa, x1 = 0.0111 | 1.025
303 K, 100 kPa, x1 = 0.053 | 0.86
303 K, 100 kPa, x1 = 0.105 | 0.92
303 K, 100 kPa, x1 = 0.157 | 0.97
303 K, 100 kPa, x1 = 0.209 | 1
303.15 K, 100 kPa, x1 = 0.05336 | 0.838
303.15 K, 100 kPa, x1 = 0.1035 | 0.994
313 K, 100 kPa, x1 = 0.053 | 0.69
313 K, 100 kPa, x1 = 0.105 | 0.72
313 K, 100 kPa, x1 = 0.157 | 0.75
313 K, 100 kPa, x1 = 0.209 | 0.79
313.15 K, 100 kPa, x1 = 0.05336 | 0.666
313.15 K, 100 kPa, x1 = 0.1035 | 0.833

C[N+](=O)[O-] + CCCCO
viscosity [mPa·s], 101 kPa
Settings | 298.15 K | 303.15 K | 308.15 K | 313.15 K | 318.15 K | 323.15 K
x1 = 0.1 | – | 1.815 | 1.607 | 1.438 | 1.283 | 1.156
x1 = 0.1589 | 1.93 | – | – | – | – | –
x1 = 0.2 | – | 1.448 | 1.305 | 1.172 | 1.067 | 0.968
x1 = 0.299 | 1.499 | – | – | – | – | –
x1 = 0.2999 | – | 1.218 | 1.107 | 0.996 | 0.906 | 0.828
x1 = 0.4 | – | 1.052 | 0.955 | 0.868 | 0.8 | 0.73
x1 = 0.4222 | 1.172 | – | – | – | – | –
x1 = 0.5016 | – | 0.918 | 0.834 | 0.762 | 0.7 | 0.646
x1 = 0.5319 | 0.9681 | – | – | – | – | –
x1 = 0.6017 | – | 0.802 | 0.73 | 0.672 | 0.622 | 0.578
x1 = 0.6302 | 0.8288 | – | – | – | – | –
x1 = 0.6991 | – | 0.706 | 0.654 | 0.605 | 0.565 | 0.527
x1 = 0.7188 | 0.7435 | – | – | – | – | –
x1 = 0.7993 | 0.6894 | – | – | – | – | –
x1 = 0.8059 | – | 0.624 | 0.583 | 0.549 | 0.518 | 0.488
x1 = 0.8718 | 0.6557 | – | – | – | – | –
x1 = 0.903 | – | 0.586 | 0.553 | 0.524 | 0.499 | 0.474
x1 = 0.9387 | 0.6378 | – | – | – | – | –
